From patent publication US10596169B2, “Cancer treatment with combination of plinabulin and taxane” (BeyondSpring Inc., priority 2013, dated 2020)

Columns and labels:
[1] = tested on: MV522 human non-small cell lung tumor xenograph model; assay: Example 2: MV522 xenograft, NPI-2358 1, 4 or 24 h after docetaxel (TGI/TGD); type: in vivo, athymic nu/nu mice; settings: for MDS day +/− SD: endpoint 1.0 cm^3
Protocol: In vivo evaluation of plinabulin in combination with docetaxel in the MV522 human non-small cell lung tumor xenograph model in athymic nu/nu mice: schedule of drug administration
The objective of the example was to evaluate the potential additive or synergistic effects of plinabulin (NPI-2358) in combination with docetaxel by administering NPI-2358 at various time points (1 h, 4 h, or 24 h) after docetaxel in the MV522 model. Significant endpoints for this experiment included mean tumor growth inhibition (TGI) or regression, tumor growth delay (TGD) in large tumor, weight loss, and mortality.
Female nude mice (Hsd: Athymic Nude-Foxn1^nu) between 5 and 6 weeks of age weighing approximately 20 grams were obtained from Harlan, Inc. (Madison, Wis.). Animals were injected subcutaneously (SC) with approximately 1×10^7 MV522 cells harvested from tissue culture (1:1 matrigel:media). When tumors grew to approximately 100 cubic millimeters (mm^3) in size, animals were pair-matched by tumor size into treatment and control groups. Animals were ear-tagged and followed individually throughout the experiment.
Initial doses were administered on Day 1 following pair-matching. The experiment was carried out as both a tumor growth inhibition (TGI) and tumor growth delay (TGD) study. For TGI, the endpoint was when the average tumor volume of Group 1 reached 1.2 cm^3. For TGD, the endpoint was reached when each individual animal's tumor volume reached 1.0 cm^3. A 10 mg/ml stock vial of docetaxel was diluted in 0.9% saline on each day of dosing and administered intravenously (IV).
Same as in Example 1. This arm of the study was ended on Day 80 or 53 at the sponsor's request. Long-term survivors (animals not reaching the tumor volume endpoint by the preset time period (LTS)) were assigned an IDS value of the last study day (Day 80) and included in these calculations.
For comparison of activity with standard agent(s), gross or net log10 cell-kill values were converted to an arbitrary activity rating below: […]

[2] = Example 3: clinical study, safety (docetaxel dose reduction, neutropenia rate, G-CSF use), Arm DN vs Arm D; type: in vivo, human (NSCLC patients)
Protocol: The investor applied the optimum plinabulin and docetaxel combination treatment schedule derived from MV522 animal studies in NSCLC patients. Patients received therapy on Day 1 and Day 8 in 3-week cycles. Therapy on Day 1 consisted of 75 mg/m^2 docetaxel administered via intravenous infusion (IV) over 1 hour, followed 2 hours later (from the time the docetaxel infusion begins) by 30 mg/m^2 plinabulin administered via intravenous infusion (IV) over 30 minutes. Therapy on Day 8 consisted of 20 mg/m^2 or 30 mg/m^2 plinabulin administered via intravenous infusion (IV) over 30 minutes.
This was an open-label study in patients with advanced NSCLC that had progressed after treatment with at least 1 chemotherapy regimen. Patients were randomized to receive either docetaxel plus plinabulin (DN) or docetaxel alone (75 mg/m^2) (D). 2 dosing cohorts were investigated: • 1) 30 mg/m^2 dosing cohort: Approximately 110 patients were to be randomized (1:1) to receive either docetaxel plus plinabulin at 30 mg/m^2 (DN 30 mg/m^2 arm) or docetaxel alone (D arm); • 2) 20 mg/m^2 dosing cohort: Approximately 57 patients were to be randomized (2:1) to receive either docetaxel plus plinabulin at 20 mg/m^2 (DN 20 mg/m^2 arm) or docetaxel (D arm) alone.
Patients received therapy on Day 1 and Day 8 in 3-week cycles.
Therapy on Day 1 consisted of 75 mg/m^2 docetaxel administered via intravenous infusion (IV) over 1 hour, followed 2 hours later (from the time the docetaxel infusion began) by placebo (Arm D) or 30 mg/m^2 or 20 mg/m^2 plinabulin (Arm DN) DN administered via intravenous infusion (IV) over 30 minutes. Oral dexamethasone (16 mg) was given the day prior to, the day of and the day following docetaxel infusion (Day 1). Therapy on Day 8 consisted of placebo (Arm D) or 30 mg/m^2 or 20 mg/m^2 plinabulin (Arm DN) administered via intravenous infusion (IV) over 30 minutes.
In patients experiencing drug related Grade >2 treatment emergent adverse events (except alopecia, anorexia, and fatigue) according to the CTCAE (v3.0) treatment may be delayed until the adverse event has recovered to <Grade 1.
The initial dose of plinabulin was 30 mg/m^2 or 20 mg/m^2. Dose adjustments depended on observed adverse events. Volume of administration varied based on assigned dose and patient body surface area. The clinical formulation were supplied as a concentrated solution in 40% Solutol® HS-15/60% propylene glycol in amber vials containing 80 mg of drug in 20 mL (4 mg/mL) and were stored at room temperature. Each vial was designated for single use. The correct volume of drug (at a concentration of 4 mg/mL in the vial) was diluted in dextrose 5% in water (D5W) at a dilution of 1:20 and administered IV peripherally or centrally. Infusion time may be increased as clinically indicated at the direction of the Sponsor. Plinabulin and placebo must be protected from light at all times including storage, dilution and administration. Plinabulin and placebo should be administered within 6 hours of dilution.
The initial dose of docetaxel was 75 mg/m^2. Dose adjustments depended on observed adverse events.
Comparisons were made of efficacy endpoints between Arm D and Arm DN. The primary efficacy endpoint is overall survival. Secondary endpoints include response rate, duration of response, quality of life, neutropenia rate and G-CSF usage. […]
All patients were evaluated for safety analysis if they received at least one dose of study drug. […]

[3] = G2: docetaxel 15 mg/kg IV + NPI-2358 vehicle 1 h after
[4] = G3: docetaxel 15 mg/kg IV + NPI-2358 vehicle 4 h after
[5] = G4: docetaxel 15 mg/kg IV + NPI-2358 vehicle 24 h after
[6] = G11: docetaxel 25 mg/kg IV + NPI-2358 vehicle 1 h after
[7] = G12: docetaxel 25 mg/kg IV + NPI-2358 vehicle 4 h after
[8] = G13: docetaxel 25 mg/kg IV + NPI-2358 vehicle 24 h after

CC(=O)O[C@@]12CO[C@@H]1C[C@H](O)[C@@]1(C)C(=O)[C@H](O)C3=C(C)[C@@H](OC(=O)[C@H](O)[C@@H](NC(=O)OC(C)(C)C)c4ccccc4)C[C@@](O)([C@@H](OC(=O)c4ccccc4)[C@H]21)C3(C)C [Docetaxel, docetaxel]
% TGI [1, 3]: 79% | Final tumor volume (Day 24) mean +/− SEM [1, 3]: 337 +/− 29 | Log10 cell kill [1, 3]: 0.6 | T-C (tumor growth delay) [1, 3]: 14 | MDS day +/− SD [1, 3]: 38 ± 3 days | % TGI [1, 4]: 81% | Final tumor volume (Day 24) mean +/− SEM [1, 4]: 313 +/− 23 | Log10 cell kill [1, 4]: 0.7 | T-C (tumor growth delay) [1, 4]: 18 | MDS day +/− SD [1, 4]: 42 ± 6 days | % TGI [1, 5]: 80% | Final tumor volume (Day 24) mean +/− SEM [1, 5]: 325 +/− 41 | Log10 cell kill [1, 5]: 0.6 | T-C (tumor growth delay) [1, 5]: 16 | MDS day +/− SD [1, 5]: 40 ± 7 days | # of animals with tumor regression (% TR (#)) [1, 6]: 7 | % TGI [1, 6]: 104% | % TR [1, 6]: 42% | Final tumor volume (Day 24) mean +/− SEM [1, 6]: 69 +/− 10 | Log10 cell kill [1, 6]: 1.6 | T-C (tumor growth delay) [1, 6]: 39 | MDS day +/− SD [1, 6]: 63 ± 10 days | # of animals with tumor regression (% TR (#)) [1, 7]: 7 | % TGI [1, 7]: 104% | % TR [1, 7]: 45% | Final tumor volume (Day 24) mean +/− SEM [1, 7]: 65 +/− 9 | Log10 cell kill [1, 7]: 1.3 | T-C (tumor growth delay) [1, 7]: 32 | MDS day +/− SD [1, 7]: 56 ± 4 days | # of animals with tumor regression (% TR (#)) [1, 8]: 7 | % TGI [1, 8]: 103% | % TR [1, 8]: 55% | Final tumor volume (Day 24) mean +/− SEM [1, 8]: 72 +/− 14 | Log10 cell kill [1, 8]: 1.4 | T-C (tumor growth delay) [1, 8]: 35 | MDS day +/− SD [1, 8]: 59 ± 10 days | Patients requiring docetaxel dose reductions ([2]; 20 mg/m^2 plinabulin cohort and companion D arm): 22.2% | Patients with docetaxel dose decrease from initial 75 mg/m^2 ([2]; 30 mg/m^2 plinabulin cohort and matched docetaxel alone arm): 18.2% | Incidence of neutropenia ([2]; DN 20 mg/m^2 arm vs companion D arm): 22.2% | Incidence of neutropenia ([2]; DN 30 mg/m^2 arm vs companion D arm): 36.4% | Incidence of ≥Grade 3 neutropenia ([2]; pooled D arm (n=73)): 27.4%
